The subject of experiment [1] is LPS (E. coli serotype 055:B5). Nature of the experiment: BODIPY TR cadaverine (BC) displacement assay with LPS. The experiment is classed as binding. The settings on record: no unit in table; ED50 values in μM; 5 mM HEPES pH 7.4; duplicates; read-out: BC50 (LPS binding). The source says:
To investigate the interaction of B2088 with LPS, we performed the BODIPY TR cadaverine (BC) displacement assay reported by Wood et al.[22]. The probe binds to the lipid A part of the LPS with moderate affinity and can be displaced by putative LPS-binding molecules. The method was used to probe the affinity of polycationic molecules and LPS binding proteins. First, we determined the affinity of polymyxin B (PMB), a lipopeptide cyclic antibiotic which has a high affinity for LPS. […] Figure 1a,b show the concentration-dependent displacement of LPS/lipid A-bound BC upon addition of B2088. […] To confirm the importance of branching, we determined the BC50 for a linear retrodimer having the amino acid sequence, […] (Fig. 1d). The determined value was 2-fold higher (3.9 ± 0.1 μM) than that of B2088, confirming a weaker affinity of the linear peptide.
The BC displacement assay was used to determine the ability of each peptide to bind to LPS. The florescent probe, BODIPY TR cadaverine (BC) was purchased from Molecular Probes/ Invitrogen (USA). A stock solution containing 1 mg/ml of LPS (E. coli serotype 055:B5) was prepared in dimethyl sulfoxide (DMSO) and another stock solution containing 1 mg/ml of BC dye was prepared in 5 mM HEPES buffer (pH 7.4). The optimum saturation concentration of BC:LPS ratio was standardized following the protocol provided by Wood et al. (22). From the BC stock, 240 μl was mixed with 500 μl from the LPS stock solution in 5 mM HEPES buffer (pH 7.4) to prepare 20 ml of BC:LPS mixture. Two-fold serial dilutions of each peptide in 5 mM HEPES buffer (pH 7.4) was prepared from their 1 mg/ml stock solutions to obtain a final range of 0.02–25.6 μM. The BC:LPS mixture was added to 100 μl of each peptide congener in a 1:1 ratio in each well of a 96-well black Costar™ polystyrene microtitre plate (Corning Incorporated, NY, USA). The maximum fluorescence intensity (Fmax) was determined using a mixture containing 100 μl PMB (50 μg/ml) and 100 μl BC:LPS solution, as PMB is considered the ‘gold standard’ for LPS-sequestering agents. The minimum fluorescence intensity (F0) was measured using 200 μl of BC:LPS mixture to determine the background noise for this experiment. Fluorescence measurements for each peptide (F) were determined using a microplate reader (Model: TECAN Infinite 200, Austria) with excitation and emission wavelengths set at 580 nm and 620 nm respectively. The percentage of BC displacement was then calculated using the formula: […]
The experiments were performed in duplicates and the effective concentration required for 50% displacement of BC dye (ED50) from LPS with respect to PMB was determined by curve fitting using Graphpad Prism (CA, USA). A higher ED50 value for the peptide indicates a lower affinity for LPS.

Experiment [2] has as its system P. aeruginosa ATCC 27853. As to the kind of experiment: microbe, parasite or virus in culture. The settings on record: ATCC 27853, 24 h. It counts as cell-based. As for the experimental part:
(§1) MIC of each peptide was determined using the microdilution method in a 96 well microtitre plates (SPL Life Sciences Co., Ltd, Korea). Two-fold serial dilutions of each peptide in Mueller-Hinton Broth (MHB) was prepared from a 1 mg/ml stock solution of the peptide in the same broth, to obtain a final concentration in the range of 0.0976–50 μg/ml in each well. Bacterial suspensions (P. aeruginosa ATCC 27853, P. aeruginosa 4877, P. aeruginosa 23155, K. pneumoniae ATCC 10031 and K. pneumoniae 4299) were prepared by suspending the overnight cultured bacteria in saline and adjusting the inoculum to ~10^8 colony forming units (CFU) per ml. A further 150-fold dilution was then prepared in MHB to achieve a final cell density of 10^5–10^6 CFU/ml. In each well, 100 μl of inoculum was mixed with the equal volume of peptides at their 2× concentration. Positive and negative controls contained 200 μl of inoculum (without any peptide) and broth alone (no peptide/inoculum) respectively. Another negative control in which MHB containing 200 μl of peptide alone in its highest concentration tested (50 μg/ml) was also included to ensure that the optical density measured in the test wells was not due to turbidity of the peptides in solution. The 96 well polystyrene plates were then incubated at 37 °C for 24 h and the optical density at 600 nm (OD600) was measured every 30 min continuously using a TECAN microplate reader (TECAN Infinite 200, Austria). All the experiments were performed in two independent duplicates and the MIC was determined as the lowest peptide concentration in which no visible growth was observed.

The next experiment concerns K. pneumoniae ATCC10031. The experiment is classed as cell-based. The following applies: ATCC10031, 24 h. The protocol: as §1
The subject of a further experiment is P. aeruginosa 23155. The experiment is classed as cell-based. The following applies: 23155, 24 h. The protocol: as §1
Another experiment has as its system K. pneumonia 4299. As to the kind of experiment: microbe, parasite or virus in culture. The following applies: 24 h. The experiment is classed as cell-based, K. pneumoniae. The protocol:
as §1

Experiment [3] relates to P. aeruginosa ATCC 27853. The experiment is classed as cell-based. The settings on record: ATCC 27853; for Fractional inhibitory concentration of peptide/PMB, combination with Genta: first number in parenthesis; for Fractional inhibitory concentration of antibiotic, Genta combination: second number in parenthesis. The protocol: (§2) The synergism between peptides with conventional antibiotics was evaluated using checkerboard assays. For a comparison polymyxin B (PMB) was also tested against each antibiotic. From their stock solutions, two-fold dilutions of each antibiotic and peptide to 1× MIC were prepared in MHB. 50 μl of each peptide concentration was added into the wells of a 96-well polystyrene plates (SPL Life Sciences Co. Ltd, Korea) in a horizontal orientation and the same volume of each antibiotic concentration were then added in a vertical orientation. Bacterial suspensions were prepared in MHB to yield final cell density of ~10^6 CFU/ml and 100 μl of bacterial suspension was mixed with each peptide-antibiotic combinations. This procedure was repeated for wells containing 200 μl of peptide alone and 200 μl of antibiotic alone in various concentrations. The positive and negative controls contained 200 μl of inoculum and MHB alone respectively. The plates were incubated at 37 °C for 24 hours and the optical density at 600 nm (OD600) was monitored as before. Fractional inhibitory concentration index (FICI) for all antibiotic- peptide combinations was calculated through the summation of (MIC of peptide in the combination/ MIC of peptide alone) and (MIC of antibiotics in combination/MIC of antibiotic alone). The experiments were performed in two independent duplicates and the combinations that gave the lowest FICI values was reported.

For the next experiment, the system named is P. aeruginosa DR4877/07. The experiment is classed as cell-based. The following applies: for Fractional inhibitory concentration of peptide/PMB, combination with Chloarm / Fractional inhibitory concentration of peptide/PMB, combination with Erythro / Fractional inhibitory concentration of peptide/PMB, combination with Levo / Fractional inhibitory concentration of peptide/PMB, combination with Tobra: first number in parenthesis; for Fractional inhibitory concentration of antibiotic, Chloarm combination / Fractional inhibitory concentration of antibiotic, Erythro combination / Fractional inhibitory concentration of antibiotic, Levo combination / Fractional inhibitory concentration of antibiotic, Tobra combination: second number in parenthesis. The protocol: as §2

In the next experiment the test system is P. aeruginosa ATCC 9027. Nature of the experiment: Outer membrane permeability assay (NPN). It counts as cell-based. The settings on record: no unit in table; Fig. S5 axis [Peptide], μM; 10 μM NPN, 5 mM HEPES pH 7.4, ex 355/em 405 nm; average of two titrations; read-out: PC50 (peptide concentration for half-maximal NPN intensity, OM permeability). The protocol:
The ability of each peptide to permeabilize the OM of Gram-negative organisms was determined using the hydrophobic fluorescent probe 1-N-phenylnaphthylamine (NPN) as previously reported. P. aeruginosa ATCC 9027 cells from an overnight MHB culture were harvested after centrifuging at 3000 rpm for 10 minutes. The pellet was washed twice, suspended in 5 mM HEPES (N- 2-hydroxyethylpiperazine-N’-2 ethanesulfonic acid) buffer (pH 7.4) and adjusted to an OD600 of 0.200. A suspension containing 600 μl of bacteria cells and 1 μl of a concentrated stock solution of NPN was mixed into a 10 mm stirred quartz cuvette so that the final concentration of the probe remained 10 μM. Aliquots containing 1 μl of each peptide in various concentrations (100, 50, 25, 15, 10, 5, 2.5 and 1 μg/ml) were added upon NPN dye stabilization. The fluorescence intensity was monitored using a Quanta Master spectrophotometer with a constant slit width of 0.5 nm, excitation and emission wavelengths set at 355 nm and 405 nm respectively. The peptide concentration required for half-maximal intensity (PC50) was determined by sigmoidal curve fitting using Graphpad Prism software. The experimental data is average of two independent titration experiments.

Positions of bridges follow the written chain, without caps; N, C: chain ends. Non-standard residues stand in square brackets, D forms with d. Residues, ends and D or L forms follow the SMILES beside them. Chains are numbered I, II in the order given. Nle = CCCC[C@H](N)C(=O)O

With `CC[C@H](C)[C@H](NC(=O)[C@H](CCCCN)NC(=O)[C@H](CCCNC(=N)N)NC(=O)CNC(=O)[C@@H](N)CCCNC(=N)N)C(=O)N[C@H](C(=O)N[C@@H](CCCNC(=N)N)C(=O)N[C@@H](CCCNC(=N)N)C(=O)NCCCC[C@H](NC(=O)[C@H](CCCNC(=N)N)NC(=O)[C@H](CCCNC(=N)N)NC(=O)[C@@H](NC(=O)[C@@H](NC(=O)[C@H](CCCCN)NC(=O)[C@H](CCCNC(=N)N)NC(=O)CNC(=O)[C@@H](N)CCCNC(=N)N)[C@@H](C)CC)[C@@H](C)CC)C(=O)N[C@@H](CCCCN)C(=O)O)[C@@H](C)CC` (I: H-RGRKIIRRKK-OH / II: H-RGRKIIRR; amide I:9-II:C; N-terminus and C-terminus assumed), the EC50 in experiment [1] came out at 1.44 ± 0.02 µM. Further, in the experiment on P. aeruginosa ATCC 27853 [2], the “Minimum Inhibitory Concentration against P. aeruginosa ATCC 27853” value was determined as 2.7 µM. In addition, the “Minimum Inhibitory Concentration against K. pneumoniae ATCC10031” value with K. pneumoniae ATCC10031 amounted to 2.7 µM. In addition, the “Minimum Inhibitory Concentration against P. aeruginosa 23155” value in the experiment on P. aeruginosa 23155 came out at 5.3 µM. Also, the “Minimum Inhibitory Concentration against K. pneumonia 4299” value in the experiment with K. pneumonia 4299 came to 5.3 µM. Further, in the experiment on P. aeruginosa ATCC 27853 [3], the “Fractional inhibitory concentration of peptide/PMB, combination with Genta” value came out at 0.5 and the “Fractional inhibitory concentration of antibiotic, Genta combination” value is recorded as 0.01. In addition, in the experiment with P. aeruginosa DR4877/07, the “Fractional inhibitory concentration of peptide/PMB, combination with Chloarm” value is 0.5; the “Fractional inhibitory concentration of peptide/PMB, combination with Erythro” value was “(0.5,0.5)”; the “Fractional inhibitory concentration of peptide/PMB, combination with Levo” value is given as 0.5; the “Fractional inhibitory concentration of peptide/PMB, combination with Tobra” value amounted to 0.5. In the experiment on P. aeruginosa DR4877/07, the “Fractional inhibitory concentration of antibiotic, Chloarm combination” value stood at 0.25; the “Fractional inhibitory concentration of antibiotic, Erythro combination” value is “(0.5,0.5)”; the “Fractional inhibitory concentration of antibiotic, Levo combination” value was found to be 0.13; the “Fractional inhibitory concentration of antibiotic, Tobra combination” value stood at 0.06. For the same compound, in the experiment with P. aeruginosa ATCC 9027, the EC50 worked out at 17 ± 0.2 µM.

For `CCCC[C@H](NC(=O)[C@H](CCCCN)NC(=O)[C@H](CCCNC(=N)N)NC(=O)CNC(=O)[C@@H](N)CCCNC(=N)N)C(=O)N[C@@H](CCCC)C(=O)N[C@@H](CCCNC(=N)N)C(=O)N[C@@H](CCCNC(=N)N)C(=O)NCCCC[C@H](NC(=O)[C@H](CCCNC(=N)N)NC(=O)[C@H](CCCNC(=N)N)NC(=O)[C@H](CCCC)NC(=O)[C@H](CCCC)NC(=O)[C@H](CCCCN)NC(=O)[C@H](CCCNC(=N)N)NC(=O)CNC(=O)[C@@H](N)CCCNC(=N)N)C(=O)N[C@@H](CCCCN)C(=O)O` [(RGRKNleuNleuRR)2KK] (I: H-RGRK[Nle][Nle]RRKK-OH / II: H-RGRK[Nle][Nle]RR; amide I:9-II:C; N-terminus and C-terminus assumed), the EC50 in experiment [1] amounted to 1.62 ± 0.02 µM. Moreover, the “Minimum Inhibitory Concentration against P. aeruginosa ATCC 27853” value with P. aeruginosa ATCC 27853 [2] worked out at 2.7 µM. In addition, in the experiment with K. pneumoniae ATCC10031, the “Minimum Inhibitory Concentration against K. pneumoniae ATCC10031” value was determined as 2.7 µM. Also, the “Minimum Inhibitory Concentration against P. aeruginosa 23155” value with P. aeruginosa 23155 turned out to be 2.7 µM. Also, the “Minimum Inhibitory Concentration against K. pneumonia 4299” value with K. pneumonia 4299 was determined as 5.3 µM. Further, in the experiment on P. aeruginosa ATCC 27853 [3], the “Fractional inhibitory concentration of peptide/PMB, combination with Genta” value stood at 0.5 and the “Fractional inhibitory concentration of antibiotic, Genta combination” value was 0.01. Moreover, in the experiment on P. aeruginosa DR4877/07, the “Fractional inhibitory concentration of peptide/PMB, combination with Chloarm” value was found to be 0.5; the “Fractional inhibitory concentration of peptide/PMB, combination with Erythro” value amounted to 0.5; the “Fractional inhibitory concentration of peptide/PMB, combination with Levo” value came out at 0.5; the “Fractional inhibitory concentration of peptide/PMB, combination with Tobra” value came to 0.06. In addition, in the experiment on P. aeruginosa DR4877/07, the “Fractional inhibitory concentration of antibiotic, Chloarm combination” value turned out to be 0.06; the “Fractional inhibitory concentration of antibiotic, Erythro combination” value is 0.03; the “Fractional inhibitory concentration of antibiotic, Levo combination” value came to 0.25; the “Fractional inhibitory concentration of antibiotic, Tobra combination” value amounted to 0.5. Moreover, the EC50 in the experiment on P. aeruginosa ATCC 9027 was 16.4 ± 0.1 µM.

The values are drawn from article PMC4865820, “Branched Peptide, B2088, Disrupts the Supramolecular Organization of Lipopolysaccharides and Sensitizes the Gram-negative Bacteria” (Scientific Reports, 2016).
